Measurements: ChEMBL document CHEMBL1212897 (J Med Chem, 2010)

biological target: T1, Estrogen receptor (Homo sapiens, UniProt P03372); assay: Antagonist activity at estrogen receptor; type: functional; conditions: not given
T1 sequence (P03372 whole entry): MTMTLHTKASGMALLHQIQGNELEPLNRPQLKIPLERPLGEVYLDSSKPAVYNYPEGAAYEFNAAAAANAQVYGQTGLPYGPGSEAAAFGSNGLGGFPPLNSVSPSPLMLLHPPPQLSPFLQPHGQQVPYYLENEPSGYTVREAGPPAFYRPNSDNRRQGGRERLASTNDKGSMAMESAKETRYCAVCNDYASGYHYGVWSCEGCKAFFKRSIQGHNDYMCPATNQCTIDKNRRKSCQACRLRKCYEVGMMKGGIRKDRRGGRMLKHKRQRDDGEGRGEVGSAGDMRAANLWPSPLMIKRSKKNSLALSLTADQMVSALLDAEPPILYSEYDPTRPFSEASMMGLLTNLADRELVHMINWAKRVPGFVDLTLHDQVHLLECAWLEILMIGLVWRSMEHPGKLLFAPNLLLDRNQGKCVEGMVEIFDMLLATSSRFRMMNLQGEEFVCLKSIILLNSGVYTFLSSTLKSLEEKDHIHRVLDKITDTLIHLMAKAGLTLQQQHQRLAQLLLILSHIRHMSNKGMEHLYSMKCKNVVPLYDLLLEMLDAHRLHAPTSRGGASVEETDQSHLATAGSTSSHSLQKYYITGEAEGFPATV

| SMILES | IC50 [µM] |
| --- | --- |
| COC(=O)[C@@H]1CC2=CC(=O)CC[C@]2(C)[C@@]23O[C@@H]2C[C@@]2(C)[C@@H](CC[C@@]24CCC(=O)O4)[C@H]13 [EPLERENONE] | > 10 |
| COc1cc(C2=NN(c3ccc(C#N)c(Cl)c3)[C@@H](C3CCCC3)C2)ccc1C(=O)O | > 10 |

biological target: Voltage-gated inwardly rectifying potassium channel KCNH2 (Homo sapiens, UniProt Q12809); conditions: not given
Sequence (Q12809 whole entry): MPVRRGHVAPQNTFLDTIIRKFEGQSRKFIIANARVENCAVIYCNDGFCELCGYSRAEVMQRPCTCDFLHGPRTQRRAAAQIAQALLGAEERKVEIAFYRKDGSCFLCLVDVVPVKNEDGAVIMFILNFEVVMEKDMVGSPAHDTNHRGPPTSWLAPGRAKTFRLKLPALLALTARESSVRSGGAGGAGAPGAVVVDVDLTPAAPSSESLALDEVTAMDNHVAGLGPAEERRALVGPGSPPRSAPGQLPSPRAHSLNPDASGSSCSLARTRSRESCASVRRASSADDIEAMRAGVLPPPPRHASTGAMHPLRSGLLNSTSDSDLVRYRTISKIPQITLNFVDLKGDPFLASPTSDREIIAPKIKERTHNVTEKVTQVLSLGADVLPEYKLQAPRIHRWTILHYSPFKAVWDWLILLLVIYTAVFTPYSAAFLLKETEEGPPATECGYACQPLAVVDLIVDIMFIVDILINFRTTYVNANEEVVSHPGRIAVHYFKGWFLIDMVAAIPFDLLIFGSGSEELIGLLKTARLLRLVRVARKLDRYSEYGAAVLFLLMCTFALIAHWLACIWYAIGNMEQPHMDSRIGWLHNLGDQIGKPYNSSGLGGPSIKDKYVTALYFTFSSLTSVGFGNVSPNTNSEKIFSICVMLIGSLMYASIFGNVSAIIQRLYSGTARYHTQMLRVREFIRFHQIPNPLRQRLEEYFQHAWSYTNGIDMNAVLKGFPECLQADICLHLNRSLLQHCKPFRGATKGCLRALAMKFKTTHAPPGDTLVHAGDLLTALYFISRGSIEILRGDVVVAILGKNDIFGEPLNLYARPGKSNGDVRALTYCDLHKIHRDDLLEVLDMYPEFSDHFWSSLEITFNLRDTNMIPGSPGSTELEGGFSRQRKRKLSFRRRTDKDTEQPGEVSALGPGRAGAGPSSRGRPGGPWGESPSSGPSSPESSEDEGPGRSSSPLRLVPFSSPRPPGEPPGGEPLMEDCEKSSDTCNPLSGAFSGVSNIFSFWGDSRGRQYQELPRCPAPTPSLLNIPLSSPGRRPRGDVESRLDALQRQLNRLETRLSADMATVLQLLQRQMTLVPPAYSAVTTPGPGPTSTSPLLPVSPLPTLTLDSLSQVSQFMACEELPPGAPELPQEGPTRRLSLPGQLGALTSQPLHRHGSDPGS

| SMILES | IC50 [nM] |
| --- | --- |
| N#Cc1ccc(N2N=C(c3ccc4[nH]c(=O)oc4c3)CC2c2ccc(C(=O)O)cc2)cc1 (racemic) | > 30000 |
| N#Cc1ccc(N2N=C(c3ccc4[nH]c(=O)oc4c3)C[C@@H]2c2ccc(F)cc2)cc1 | 29 |
| CN(C)CCN(C)C(=O)c1ccc(C2=NN(c3ccc(C#N)cc3)C(c3ccc(F)cc3)C2)cc1 (racemic) | 170 |
| N#Cc1ccc(N2N=C(c3ccc(C(=O)O)cc3)CC2c2ccc(F)cc2)cc1 (racemic) | > 30000 |
| O=C(O)c1ccc(N2N=C(c3ccc4[nH]c(=O)oc4c3)CC2c2ccc(F)cc2)cc1 (racemic) | > 30000 |

biological target: T2, Mineralocorticoid receptor (Homo sapiens, UniProt P08235); type: functional, cell-based, Huh-7; conditions: not given;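 note: antagonism at Gal4-fused mineralocorticoid receptor in human Huh7 cells, measured by luciferase reporter gene read-out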
T2 sequence (P08235 whole entry): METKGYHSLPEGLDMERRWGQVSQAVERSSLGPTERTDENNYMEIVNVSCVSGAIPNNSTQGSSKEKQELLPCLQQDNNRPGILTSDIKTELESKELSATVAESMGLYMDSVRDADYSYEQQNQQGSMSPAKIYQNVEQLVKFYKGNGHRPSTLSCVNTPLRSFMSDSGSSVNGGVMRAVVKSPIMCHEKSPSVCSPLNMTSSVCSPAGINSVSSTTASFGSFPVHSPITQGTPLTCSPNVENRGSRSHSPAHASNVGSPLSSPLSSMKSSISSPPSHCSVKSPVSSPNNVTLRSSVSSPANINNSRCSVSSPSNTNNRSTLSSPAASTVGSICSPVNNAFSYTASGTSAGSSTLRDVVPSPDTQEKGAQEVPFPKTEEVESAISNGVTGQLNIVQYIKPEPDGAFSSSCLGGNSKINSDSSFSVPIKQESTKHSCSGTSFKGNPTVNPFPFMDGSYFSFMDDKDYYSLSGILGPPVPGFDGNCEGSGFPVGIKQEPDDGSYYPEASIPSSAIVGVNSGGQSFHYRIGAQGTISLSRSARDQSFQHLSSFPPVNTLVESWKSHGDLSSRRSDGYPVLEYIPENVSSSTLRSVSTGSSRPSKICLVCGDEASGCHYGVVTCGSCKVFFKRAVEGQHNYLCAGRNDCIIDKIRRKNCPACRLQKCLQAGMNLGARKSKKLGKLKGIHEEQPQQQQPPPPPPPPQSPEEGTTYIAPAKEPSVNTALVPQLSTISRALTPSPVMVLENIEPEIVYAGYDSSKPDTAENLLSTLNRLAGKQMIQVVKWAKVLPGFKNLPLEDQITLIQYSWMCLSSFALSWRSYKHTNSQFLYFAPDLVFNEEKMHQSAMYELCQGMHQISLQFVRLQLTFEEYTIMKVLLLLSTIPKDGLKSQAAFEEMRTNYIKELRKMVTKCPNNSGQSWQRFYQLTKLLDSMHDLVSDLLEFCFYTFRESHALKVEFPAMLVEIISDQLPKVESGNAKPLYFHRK

| SMILES | IC50 [nM] |
| --- | --- |
| N#Cc1ccc(N2N=C(c3ccc(C(=O)O)cc3)CC2c2ccc(F)cc2)cc1F (racemic) | 243 |
| N#Cc1ccc(N2N=C(c3ccc(C(=O)O)cc3)CC2c2ccc(F)cc2)cc1C(F)(F)F (racemic) | 127 |
| N#Cc1ccc(N2N=C3c4ccc(C(=O)O)cc4CC[C@@H]3[C@@H]2C2C=CC=CO2)cc1Cl (mixture of isomers) | 127 |
| Cc1nc(C)c(C2=NN(c3ccc(C#N)cc3)[C@@H](c3ccc(F)cc3)C2)s1 | 32 |
| N#Cc1ccc(N2N=C3c4ccc(C(=O)O)cc4CC[C@@H]3[C@@H]2C2CCCO2)cc1Cl (mixture of isomers) | 720 |
| Cc1cc(N2N=C3c4ccc(C(=O)O)cc4CC[C@@H]3[C@@H]2C2CCCC2)ccc1C#N (racemic) | 4 |
| N#Cc1ccc(N2N=C(c3ccc(C(=O)O)cc3)CC2C2CCCCC2)cc1 (racemic) | 1290 |
| N#Cc1ccc(N2N=C(c3ccc4[nH]c(=O)oc4c3)CC2c2ccc(C(=O)O)cc2)cc1 (racemic) | > 10000 |
| N#Cc1ccc(N2N=C3c4ccc(C(=O)O)cc4CC[C@@H]3[C@@H]2C2CC=CC2)cc1Cl (racemic) | 15 |
| N#Cc1ccc(N2N=C(c3ccc(C(=O)O)cc3)CC2C2CCCC2)cc1 (racemic) | 151 |
| CC(C)CC1CC(c2ccc(C(=O)O)cc2)=NN1c1ccc(C#N)cc1 (racemic) | 2530 |
| O=[N+]([O-])c1ccc(N2N=C(c3ccc(O)cc3)CC2c2ccc(F)cc2)cc1 (racemic) | 460 |
| N#Cc1ccc(N2N=C3c4ccc(C(=O)O)cc4CC[C@H]3[C@H]2c2ccc(F)cc2)cc1Cl (racemic) | 223 |
| N#Cc1ccc(N2N=C(c3ccc(C(=O)O)cc3)CC2c2ccc(F)cc2)cc1C#N (racemic) | > 1000 |
| COc1cc(C2=NN(c3ccc(C#N)c(Cl)c3)[C@@H](C3CCCC3)C2C)ccc1C(=O)O (single isomer, unassigned) | 69 |
| N#Cc1ccc(N2N=C(c3ccc(C(=O)O)cc3)CC2C2CCCC2)cc1Cl (racemic) | 54 |
| N#Cc1ccc(N2N=C(c3ccc4[nH]c(=O)oc4c3)C[C@@H]2c2ccc(F)cc2)cc1 | 41 |
| COCc1cc(N2N=C3c4ccc(C(=O)O)cc4CC[C@@H]3[C@@H]2C2CCCC2)ccc1C#N | 150 |
| CN(C)CCN(C)C(=O)c1ccc(C2=NN(c3ccc(C#N)cc3)C(c3ccc(F)cc3)C2)cc1 (racemic) | 83 |
| N#Cc1ccc(N2N=C(c3ccc4[nH]c(=O)oc4c3)C[C@H]2c2ccc(F)cc2)cc1 | 2080 |

| SMILES | IC50 [nM] |
| --- | --- |
| N#Cc1ccc(N2N=C(c3ccc(C(=O)O)c(Cl)c3)C[C@@H]2C2CCCC2)cc1Cl | 26 |
| N#Cc1ccc(N2N=C(c3ccc(C(=O)O)c(OC(F)(F)F)c3)C[C@@H]2C2CCCC2)cc1Cl | 80 |
| N#Cc1ccc(N2N=C(c3ccc(C(=O)O)cc3)CC2c2cccnc2)cc1 (racemic) | > 10000 |
| N#Cc1ccc(N2N=C(c3ccc(C(=O)O)cc3)C[C@@H]2c2ccc(F)cc2)cc1 | 101 |
| O=C(O)c1ccc(C2=NN(c3ccc(C(=O)O)cc3)C(c3ccc(F)cc3)C2)cc1 (racemic) | > 10000 |
| N#Cc1ccc(N2N=C3c4ccc(C(=O)O)cc4CC[C@@H]3[C@@H]2C2CCC2)cc1Cl (racemic) | 21 |
| N#Cc1ccc(N2N=C3c4ccc(C(=O)O)cc4CO[C@@H]3[C@@H]2c2ccc(F)cc2)cc1Cl (racemic) | 849 |
| CC(C)C1CC(c2ccc(C(=O)O)cc2)=NN1c1ccc(C#N)c(Cl)c1 (racemic) | 383 |
| O=C(O)c1ccc(C2=NN(c3ccccc3)C(c3ccc(F)cc3)C2)cc1 (racemic) | 9730 |
| Cc1cc(N2N=C3c4ccc(C(=O)O)cc4CO[C@H]3[C@H]2C2CCCC2)ccc1C#N (racemic) | 39 |
| COc1cccc(C2CC(c3ccc(C(=O)O)cc3)=NN2c2ccc(C#N)cc2)c1 (racemic) | 1590 |
| N#Cc1ccc(N2N=C(c3ccc(CC(=O)O)cc3)C[C@@H]2C2CCCC2)cc1Cl | 135 |
| Cc1cc(N2N=C(c3ccc(C(=O)O)cc3)CC2c2ccc(F)cc2)ccc1C#N (racemic) | 56 |
| N#Cc1ccc(N2N=C(c3ccc(C(=O)O)cc3)CC2c2ccco2)cc1 (racemic) | 410 |
| COc1cc(C(=O)O)ccc1C1=NN(c2ccc(C#N)c(Cl)c2)[C@@H](C2CCCC2)C1 | 2 |
| N#Cc1ccc(N2N=C3c4ccc(C(=O)O)cc4CO[C@H]3[C@H]2C2CCCC2)cc1Cl (stereo in doubt) | 146 |
| N#Cc1ccc(N2N=C(c3ccc(C(=O)O)cc3)C[C@H]2c2ccc(F)cc2)cc1 | 8360 |
| N#Cc1ccc(N2N=C(c3ccc(C(=O)O)cc3)CC2c2cccs2)cc1 (racemic) | 763 |
| N#Cc1ccc(N2N=C(c3ccc(C(=O)O)cc3)CC2c2ccc(F)cc2)cc1 (racemic) | 246 |
| O=C(O)c1ccc(N2N=C(c3ccc4[nH]c(=O)oc4c3)CC2c2ccc(F)cc2)cc1 (racemic) | 784 |

| SMILES | IC50 [nM] |
| --- | --- |
| N#Cc1ccc(N2N=C(c3ccc(C(=O)O)cc3)CC2Cc2ccccc2)cc1 (racemic) | 3650 |
| N#Cc1ccc(N2N=C(c3ccc(C(=O)O)cc3)CC2c2ccccn2)cc1 (racemic) | > 10000 |
| N#Cc1ccc(N2N=C(c3ccc(C(=O)O)cc3)CC2c2ccc(F)cc2)c(Cl)c1 (racemic) | 284 |
| N#Cc1ccc(N2N=C(c3ccc(C(=O)O)cc3)CC2c2ccc(F)cc2)c(F)c1 (racemic) | 535 |
| COc1ccc(N2N=C(c3ccc(C(=O)O)cc3)CC2c2ccc(F)cc2)cc1 (racemic) | 1440 |
| N#Cc1ccc(N2N=C(c3ccc4[nH]c(=O)oc4c3)CC2c2ccc(F)cc2)cc1 (racemic) | 58 |
| N#Cc1ccc(N2N=C(c3ccc(C(=O)O)cc3)CC2c2ccncc2)cc1 (racemic) | > 10000 |
| N#Cc1ccc(N2N=C(c3ccc(C(=O)O)cc3)CC2c2cccc(F)c2)cc1 (racemic) | 441 |
| N#Cc1ccc(N2N=C3c4ccc(C(=O)O)cc4CC[C@@H]3[C@@H]2C2CCCC2)cc1O (racemic) | > 500 |
| N#Cc1ccc(N2N=C3c4ccc(C(=O)O)cc4C[C@@H]3[C@@H]2c2ccc(F)cc2)cc1 (racemic) | 4340 |
| N#Cc1ccc(N2N=C(c3ccc(C(=O)O)cc3)CC2c2ccc(F)cc2)cc1Cl (racemic) | 56 |
| N#Cc1ccc(N2N=C3c4ccc(C(=O)O)cc4CO[C@@H]3[C@@H]2C2CCCC2)cc1Cl (stereo in doubt) | 65 |
| N#Cc1ccc(N2N=C3c4ccc(C(=O)O)cc4CC[C@@H]3[C@@H]2C2CCCC2)cc1OCc1ccccc1 (racemic) | 488 |
| N#Cc1ccc(N2N=C(c3ccc(C(=O)O)c(F)c3)C[C@@H]2C2CCCC2)cc1Cl | 52 |
| CCOC(=O)c1ccc(N2N=C(c3ccc(C(=O)O)cc3)CC2c2ccc(F)cc2)cc1 (racemic) | 180 |
| COc1cc(N2N=C3c4ccc(C(=O)O)cc4CC[C@@H]3[C@@H]2C2CCCC2)ccc1C#N (racemic) | 7 |
| N#Cc1ccc(N2N=C(c3ccc(C(=O)O)c(OCCCO)c3)C[C@@H]2C2CCCC2)cc1Cl | 13 |
| N#Cc1ccc(N2N=C3c4ccc(C(=O)O)cc4CC[C@@H]3[C@@H]2c2ccc(F)cc2)cc1 (racemic) | 553 |

system: not listed separately; assay: Volume of distribution at steady state in Sprague-Dawley rat at 2 mg/kg, iv; type: ADME, organism-based; set-up: dose 2 mg/kg, route intravenous; conditions: in vivo, read-out: Vdss

| SMILES | Vd [L/kg] |
| --- | --- |
| COc1cc(C2=NN(c3ccc(C#N)c(Cl)c3)[C@@H](C3CCCC3)C2)ccc1C(=O)O | 3.9 |

system: not listed separately; assay: Half life in Sprague-Dawley rat at 2 mg/kg, iv; type: ADME, organism-based; set-up: dose 2 mg/kg, route intravenous; conditions: in vivo

| SMILES | half-life [min] |
| --- | --- |
| COc1cc(C2=NN(c3ccc(C#N)c(Cl)c3)[C@@H](C3CCCC3)C2)ccc1C(=O)O | 114 |

system: not listed separately; assay: Oral bioavailability in Sprague-Dawley rat at 2 mg/kg; type: ADME, organism-based; conditions: in vivo

| SMILES | bioavailability [%] |
| --- | --- |
| COc1cc(C2=NN(c3ccc(C#N)c(Cl)c3)[C@@H](C3CCCC3)C2)ccc1C(=O)O | 57 |

system: not listed separately; assay: Clearance in Sprague-Dawley rat at 2 mg/kg, iv; type: ADME, organism-based; set-up: dose 2 mg/kg, route intravenous; conditions: in vivo

| SMILES | clearance [mL/min/kg] |
| --- | --- |
| COc1cc(C2=NN(c3ccc(C#N)c(Cl)c3)[C@@H](C3CCCC3)C2)ccc1C(=O)O | 24 |
